Experimental data: a melting point compilation (Tetko et al.; mined from patent text by program, amines drawn as free bases though some values may be those of a salt)

| Structure (SMILES) | melting point [°C] |
| --- | --- |
| N#Cc1cccc(-c2cccs2)n1 | 88.2 to 88.6 |
| Cn1cc(C(=O)NCc2ccc(Cl)cc2)c(=O)c2cc(CN3CCOc4ccccc43)ccc21 | 193 to 194 |
| CN(C)c1c(CC(=O)O)cccc1C(=O)c1ccccc1 | 144 to 146 |
| CCCCS(=O)(=O)NC(=O)c1ccc(C(=O)NCCO)nc1 | 168 to 169 |
| COC(=O)/C=C/c1cc([N+](=O)[O-])cn1C | 146 to 147 |
| CCCN1N=C2C(=Cc3ccccc3)CSCC2C1c1ccccc1 (centres undefined) | 111 to 120 |
| Oc1ccccc1-c1cc(-c2ccc(F)c(F)c2)cc(-c2ccc3ccccc3c2)n1 | 165 to 167 |
| CN1C(=O)N(CBr)C(=O)C1(C)C | 86 to 88 |
| Cc1cc(C)c2c(c1C)OCC2=O | 92 to 93 |
| N#CCN1C(=O)C2(COc3cc4c(cc32)OCO4)c2ccccc21 (centres undefined) | 170 to 172 |
| CN(Cc1ccc(NC(=O)C2=Cc3cc(-c4ccc(N5CCCCC5)cc4)ccc3CCC2)cc1)C1CCOCC1 | 170 to 171 |
| CSCCC(=N)NS(N)(=O)=O | 88 to 91 |
| CNC(=O)Oc1c(C)cc(C)c2c1CC(C)C2(C)C (centres undefined) | 130 to 131 |
| O=c1[nH]c2ccsc2c(=O)n1CCN1CCN(c2ccccc2)CC1 | 215 to 217 |
| COC(=O)c1cnc(S)n1C1CCCC2CCCCC21 (centres undefined) | 84 to 86 |
| CCOc1ccc(C2=NN(c3ccc(C(=O)N4CCN(c5ccc(C(F)(F)F)cn5)CC4)cc3)C(=O)[C@@H]3CC=CC[C@H]23)cc1OCC | 121 to 123 |
| CSc1nnc(Sc2ncnc3c(C)csc23)s1 | 163 to 166 |
| CCCCc1oc2ccccc2c1C(=O)N(Cc1ccccc1)Cc1ccc2cc(O)ccc2c1 | 160 to 164 |
| CC1CCc2c(c(OCc3ccccn3)nn3c(-c4ccccc4)nnc23)C1 (centres undefined) | 152 to 154 |
| COC(=O)c1ccc(O)c(C(=O)CC(=O)C=Cc2ccccc2)c1 | 138 to 140 |
| Cc1ccc(S(=O)(=O)NCCNC(C)C)cc1 | 76 to 78 |
| Cc1cc2nc3c(nc2cc1[N+](=O)[O-])SC(C#N)=C(C#N)S3 | 155 to 157 |

| Structure (SMILES) | melting point [°C] |
| --- | --- |
| O=C1N(Cc2cccc(-c3noc(C(F)(F)F)n3)c2)c2ccccc2C12COc1cc3c(cc12)CCO3 (centres undefined) | 182 to 188 |
| CCC1(C)CCCNC1=O (centres undefined) | 67 to 69 |
| Cc1ccc(Br)c2occc12 | 32 to 33 |
| CN(C)c1cc(CC#N)cc(Cc2nc3c(F)c(F)cc(F)c3s2)c1 | 99 to 100 |
| CC(=O)Nc1cccc2c1S(=O)(=O)C(C)C2 (centres undefined) | 115 to 117 |
| Cc1ccc2c(c1)C(CCCCOS(C)(=O)=O)C(=O)N2 (centres undefined) | 89 to 90 |
| COCCC(=O)Nc1cccc(-c2cccc3cc(Cc4cccc(C(F)(F)F)c4)sc23)c1 | 102 to 103 |
| CNC(=O)Oc1c(OC)cc(OC)c2ccccc12 | 131 to 133 |
| c1ccc(CSc2nccn2-c2ccccn2)cc1 | 76 to 77 |
| O=C(Cc1ccc(CCNS(=O)(=O)c2ccc(Cl)cc2)cc1)Nc1nnn[nH]1 | 168 to 170 |
| O=C(O)C1CN(C(=O)N(c2ccccc2)c2ccccc2)CCN1C(=O)N(c1ccccc1)c1ccccc1 (centres undefined) | 244 to 246 |
| COc1cc2c(cc1F)CC/C2=C\C#N | 197 to 199 |
| CS(=O)(=O)c1ccc(-c2nc(C(F)(F)F)nc(N=[N+]=[N-])c2-c2ccc(F)cc2)cc1 | 285 to 288 |
| O=C(O)CCCCOc1ccc(OCc2ccccc2)cc1 | 127 to 128 |
| COC(=O)N=C(NC(=O)OC)SC | 99 to 101 |
| O=C(CCl)N1CCSC1COc1ccccc1O (centres undefined) | 89 to 91 |
| CC(C)Cn1c(CNC(=O)OC(C)(C)C)c(-c2ccc(F)cc2)c2cc(/C=C/C(N)=O)ccc2c1=O | 161 to 163 |
| Clc1ccc2c(c1)NCc1ccccc1O2 | 94 to 95 |
| CCCCCCCCCCCCn1nnc(NC(=O)CS(=O)(=O)Nc2c(C(C)C)cccc2C(C)C)n1 | 138 to 140 |
| O=C1C=C(NC(=O)C(=O)c2cn(Cc3ccc(Cl)cc3)c3cccc(CO)c23)CO1 | 238 to 240 |
| CC12CCC(I)CC1=CCC1C2CCC2(C)C1CCC21OCCO1 (centres undefined) | 140 to 141 |
| Oc1cc2c(cc1C=CCc1ccccc1)OCO2 | 83 |

Next, values leading:

| melting point [°C] | Structure (SMILES) |
| --- | --- |
| 259 | Cn1ncc(C(=O)O)c1C(=O)Nc1ccc2nc(-c3ccccc3)nn2c1 |
| 211 | CC(C)NC(=NC(=O)OCc1ccccc1)N=C1NC(=O)C(=O)N1c1ccc(Cl)c(Cl)c1 |
| 168 to 170 | CC(C)(C)C(=O)Nc1ccc(O)cc1 |
| 142 | COc1cccc(-c2nc(N)nc(Nc3cccc(Br)c3)n2)c1 |
| 199 | CCCCCCCCc1c(C)nc2cc(C)nn2c1O |
| 131 to 132 | COC(=O)C(OC)c1ccc2nc(-c3ccc(Cl)cc3)oc2c1 (centres undefined) |
| 124 to 127 | Cc1cccc(OCC2=NCCN2C(=S)N(C)C)c1C |
| 115 to 118 | CCSC(=O)c1nc(N)ccc1Oc1nc(OC)cc(OC)n1 |
| 167 to 169 | COc1cc(OC)nc(C(=O)NS(=O)(=O)NC(C)C)n1 |
| 128 to 131 | COC(=O)c1ccc(-c2ccc(OC)c(OC3CCCC3)c2)cc1 |
| 252 to 254 | CCOc1ccccc1-c1nc2c(C(N)=O)cccc2c(=O)[nH]1 |
| 297 to 299 | CCOc1ccc(/C=C/c2nc3c([nH]2)c(=O)n(CC)c(=O)n3CC)cc1 |
| 56 to 58 | Cc1cccc2c1O[C@@H](CN1CCC(CNC(=O)c3cccnc3N)CC1)CO2 |
| 175 to 178 | CC(O)CSc1sc(-c2cc[nH]n2)c2c1C(=O)CC(C)(C)C2 (centres undefined) |
| 241 to 243 | C#Cc1ccc2c(c1)N(c1ncnc3cc(OC)c(OC)cc13)CC2 |
| 140 to 141 | CCn1ncc2c1ncc1c(=O)n(CCN3CCOCC3)c3cc(C)nn3c12 |
| 101 to 103 | CCC1(CC(=O)OC)OCCc2c1[nH]c1c(CCO)c(F)ccc21 (centres undefined) |
| 90.2 to 91.4 | COC(=O)c1cc(Oc2ccc(F)cc2F)ncc1[N+](=O)[O-] |
| 123 to 124 | COC(=O)c1ccc(NC(=O)c2cc(C(C)C)c(C(C)C)o2)cc1Cl |
| 84 to 87 | COc1c2c(c(OC)c(OC)c1OC)CCC(CCn1ccccc1=O)CC2 |
| 92 to 95 | Nc1sc2c(c1C(=O)c1ccccc1)CCSC2 |
| 201 to 203 | COC(=O)c1nn(C2CCCCO2)cc1NC(=O)c1cc(Cl)ccn1 (centres undefined) |
| 70 to 72 | CC(SC(=S)c1cc(C(C)(C)C)c(O)c(C(C)(C)C)c1)c1ccccc1 (centres undefined) |
| 116 to 127 | CCCCCN(C(=O)OC(C)(C)C)c1nc(N(C)Cc2ccccc2)c2ncn(CC(=O)O)c2n1 |
| 115 to 117 | COC(=O)c1cc(-n2c(OC)nc(C(F)(F)F)cc2=O)c(F)cc1Cl |
| 133 to 137 | CCOC(=O)c1cnc2ccc(Oc3ccccc3)nc2c1Cl |
| 228 | CCOc1ccc2c(c1)n(C1CCCCC1)c(=O)n2S(=O)(=O)c1ccc(N)cc1OC |
| 223 | Cc1nc(C(F)(F)F)ccc1/C=C/C(=O)Nc1ccc2cc[nH]c2c1 |
| 44 to 46 | COc1cc(C(C)=O)ccc1OCCCN1CCC(C(O)(c2ccc(F)cc2)c2ccc(F)cc2)C1 (centres undefined) |
| 339 to 341 | COC(=O)c1ccc(C(=O)Nc2nc(-c3cccc(C)c3)c(-c3ccncn3)s2)cc1 |
